3 substances from US4908352A, “Urotensin peptides” (The Salk Institute for Biological Studies, priority 1987, dated 1990) can be followed below.

Assay [1] is described as follows: Vasodilatory-hypotensive activity, general procedure of Example III (species not separated). Type of assay: in vivo. Particulars: for mesenteric blood flow / systemic blood pressure / vasodilatory-hypotensive activity: general procedure of Example III; for vasodilatory-hypotensive activity: mammalian. An excerpt:
(§1) The urotensin peptide from Example II is examined for effects on the secretion of ACTH and β-endorphin in vitro and also examined in vivo. A low potency (4%) to stimulate the secretion of ACTH and β-endorphinby cultured rat pituitary cells is observed. The peptide also stimulates ACTH and B-END-LI secretion in vivo in several rat preparations. UI activity of the peptide is evident in the isolated rat hind limb assay, Lederis, K. et al. "Effects and Assay of Urotensin I on the Perfused Hind Limb of the Rat", Gen. Comp. Endocrinol., 24:10-16, 1974. In vivo hypotensive activity of extracted peptides is measured in anaesthetized rats, Lederis, K. and Medakovic, M. "Pharmacological Observations on the Hypotensive Actin of Extracts of Teleost Fish Urophyses (Urotensin I) in the Rat", Br. J. Pharmacol. 51:315-324, 1974, and in anaesthetized dogs, MacCannell and Lederis, "Dilatation of the Mesenteric Vascular Bed of the Dog Produced by a Peptide, Urotensin I", J. Pharm. Exp. Ther. 203:38-46, 1977.

Assay [2] is described as follows: ACTH and β-endorphin secretion, general procedure of Example III (in vitro / in vivo not separated).
Text: as §1

For assay [3], the system named is isolated mesenteric artery strips of the rat. Description: Isolated mesenteric artery strips of the rat. An excerpt:
The synthetic peptides described above with respect to Example I are generally equipotent with the extracted and purified peptide, as tested in the anaesthetized dog in vivo and when tested in isolated mesenteric artery strips of the rat according to Muramatsu, I., Miura, A., Fujiwara, M. and Lederis, K., Gen. Comp. Endocrinol. 45:446-452, 1981.

The nature of assay [4]: ACTH and B-END-LI secretion in vivo in several rat preparations.
Text: as §1

For another assay, the system named is mesenteric vascular bed. Description: In vivo hypotensive activity / mesenteric vasodilatation in anaesthetized dogs. The arrangement: species or system dog.
Text: as §1
In the pentobarbital-anaesthetized dog, the threshold dose of Maggy UI for mesenteric vasodilatation, when given close arterially into the cephalic mesenteric A, is between 0.001 and 0.01 μg.

Assay [5] can be described thus: In vivo hypotensive activity in anaesthetized rats. The following applies: anaesthetized rat.
Text: as §1

In assay [6] the test system is cultured rat pituitary cells. Description: Secretion of ACTH and β-endorphin by cultured rat pituitary cells. Type of assay: cell-based. Particulars: relative potency, reference not named.
Text: as §1

The subject of a further assay is teleost fish pituitaries. Nature of the assay: Secretion of ACTH by teleost fish pituitaries.
The subject of assay [7] is Perfused Hind Limb of the Rat. Description: Isolated rat hind limb assay (UI activity).
Text: as §1

Setting [8] is: pentobarbital-anaesthetized dog, doses of 0.1-0.5 μg.

For the substance “Ac-SEEPPMSIDLTFHMLRNMIHRAKMEGEREQALINRNLLDEV-NH2 [IV]”, in assay [1], the mesenteric blood flow entry is reported as “very significant increasing”, the systemic blood pressure result is given as “lowering” and the vasodilatory-hypotensive activity entry was “causes vasodilatory-hypotensive activity”. Also, in assay [2] (general procedure of Example III), the “secretion of ACTH and β-END-LI” value is listed as “stimulates”.
On to “H-SEEPPMSIDLTFHMLRNMIHRAKMEGER-NH2 [Example V, H-Ser-Glu-Glu-Pro-Pro-Met-Ser-Ile-Asp-Leu-Thr-Phe-His-Met-Leu-Arg-Asn-Met- Ile-His-Arg-Ala-Lys-Met-Glu-Gly-Glu-Arg-NH2]”, for which, in assay [1], the mesenteric blood flow result was “increasing”, the systemic blood pressure entry is on record as “lowering” and the vasodilatory-hypotensive activity result is “significant”.
Regarding “H-SEEPPMSIDLTFHMLRNMIHRAKMEGEREQALINRNLLDEV-NH2 [Maggy UI]”, the “activity compared with the extracted and purified peptide” value (in [3]; in the assay with mesenteric vascular bed (anaesthetized dog in vivo)) was “not significantly different” each time. The “ACTH and B-END-LI secretion in vivo” value in [4] is “stimulates”. For the same substance, the blood pressure result was “substantially lower blood pressure for an extended time period” in [1] (summary statement), “modest but sustained depression of the blood pressure” in the assay with mesenteric vascular bed (anaesthetized dog) and “more marked fall in blood pressure” in assay [5]. In addition, the “dilatation of vascular beds other than the mesenteric” value in the assay with mesenteric vascular bed (anaesthetized dog) is “does not dilate other vascular beds”. Moreover, the “accompanying change in blood pressure (decrease)” value with mesenteric vascular bed (setting [8]) is listed as “about 10%”. In addition, in the assay on mesenteric vascular bed (setting [8]), the mesenteric flow entry is “significant increase”. Further, in [6], the “potency to stimulate the secretion of ACTH and β-endorphin” value is 4%. In addition, in the assay on teleost fish pituitaries, the “potency in stimulating the secretion of ACTH compared with amunine” value was “somewhat more potent than amunine”. For the same substance, in assay [7], the UI activity entry is recorded as “evident”. Further, in [2] (in vitro and in vivo (summary statement)), the “ACTH and β-endorphin activities” value was “stimulate ACTH and β-endorphin activities in vitro and in vivo”.
